Patent publication US20240336588A1, “COMPOSITIONS AND METHODS FOR ANTIOXIDANT AND ANTI-INFLAMMATORY THERAPEUTICS” (AVANTI BIOSCIENCES INC., priority 2021, published 2024)

These compounds were tested on MOG35-55-induced chronic progressive Experimental Autoimmune Encephalomyelitis (EAE) (assay: MOG35-55-induced murine model of chronic progressive EAE). Conditions: reference compound; FIG. 1.
Assay type: in vivo, mice
Source text: Compound 40 of Table 1 was examined for application in neurodegenerative disorders using a MOG35-55-induced murine model of chronic progressive Experimental Autoimmune Encephalomyelitis (EAE), an inflammation model predictive for multiple sclerosis (MS).
Without being bound by theory, the present inventors note that compound 40 could have a peripheral immunomodulation effect and an overall neuroprotective effect, which could have advantageous implications for the treatment of neurodegenerative disorders like Alzheimer's disease and Multiple Sclerosis.
In the case of `O=C(O[C@@H]1Cc2c(O)cc(O)cc2O[C@@H]1c1cc(O)c(O)c(O)c1)c1cc(O)c(O)c(O)c1` [Compound 3, (2R,3R)-5,7-dihydroxy-2-(3,4,5-trihydroxyphenyl)chroman-3-yl 3,4,5-trihydroxybenzoate, reference compound], the “activity in the EAE model (reference compounds)” value is reported as “no significant activity”.
For `CCCCCCCCc1ccc(CCC(N)(CO)CO)cc1` [FTY720, Fingolimod, reference compound], the “activity in the EAE model (reference compounds)” value was “reversal of the disease”.

The compounds below were run against DYRK1A (HT-497, 6×His tagged rat truncated DYRK1A isoform X1 residues 1-497) (Rattus norvegicus (Rat), UniProt Q63470) (assay: DYRK1A ELISA assay (HT-PRD phosphorylation)). Conditions: 100 µM ATP, 5 ng HT-497, 30 min at 30° C.
Assay type: biochemical
Description: Compounds of Table 1, above, were examined in vitro for activity against DYRK1A, DYRK1B, DYRK2 via an ELISA assay.
DYRK1A assay. […] After blocking, wells were washed extensively with dilution buffer before subjecting to phosphorylation. […] At the end point, wells were washed with ˜350 μl dilution buffer three times to terminate the reaction. […] Each point was run in quadruplicate with DMSO present in all assays at 0.2% final concentration. […] HT-PRD phosphorylation was subsequently determined by the sandwich antibody staining protocol, first with 100 μl mouse mAb 3D3 specific for detecting DYRK1A-phosphorylated PRD (60 min at room temperature) then with 100 μl alkaline phosphatase (AP)-linked anti-mouse secondary antibody (60 min at room temperature), followed by colorimetric reaction with 100 μl PNPP solution (PNPP substrate tablet, Thermo Fisher). […] The readings were then recorded for subsequent IC50 calculation. The DYRK1A assay protocol can also support DYRK1B and DYRK2 phosphorylation reactions in the enzyme concentration-dependent manner; therefore, the method was adapted for measuring the activity of candidate compounds against DYRK1B and DYRK2. For DYRK2, the reactions were performed as described above with 6 ng HT-DYRK2 (6×His tagged full-length human DYRK2 isoform 1). For DYRK1B, the assays were also similarly conducted but with 70 ng GST-DYRK1B (glutathione S-transferase tagged full length human DYRK1B isoform p65) and an extended kinase reaction time of 60 min.
Dilution factors for both mAb 3D3 and secondary antibody were pre-determined for each batch of antibody to ensure that neither antibody was limiting in the assay.
Data transformation, calculation, plotting, curve fitting, and IC 50 calculation were performed in KaleidaGraph (http://www.synergy.com/wordpress_650164087; Mac version 4.1). Data was corrected for background (readings from wells with only PNPP) before subsequent manipulations. […] The resulting residual activity was then plotted against its corresponding inhibitor concentrations in semi-log graph and the plot was fit to the sigmoidal equation, y=a+(b−a)/(1+(x/c)^d), for IC50 calculation.
With `O=C(O[C@@H]1Cc2c(O)cc(O)cc2O[C@H]1c1cc(O)c(O)c(O)c1)c1ccc(O)c(O)c1O` [Compound 38, (2S,3R)-5,7-dihydroxy-2-(3,4,5-trihydroxyphenyl)chroman-3-yl 2,3,4-trihydroxybenzoate] the IC50 was > 100 nM.
For `O=C(O[C@@H]1Cc2ccccc2O[C@H]1c1cc(O)c(O)c(O)c1)c1cc(O)c(O)c(O)c1` [Compound 39, (2S,3R)-2-(3,4,5-trihydroxyphenyl)chroman-3-yl 3,4,5-trihydroxybenzoate], the IC50 was > 100 nM.
In the case of `O=C(O[C@@H]1Cc2c(O)cc(O)cc2O[C@H]1c1cc(O)c(O)c(O)c1)c1cc(O)c(O)cc1F` [Compound 41, (2S,3R)-5,7-dihydroxy-2-(3,4,5-trihydroxyphenyl)chroman-3-yl 2-fluoro-4,5-dihydroxybenzoate], the IC50 is reported as > 100 nM.
For `O=C(O[C@@H]1Cc2c(O)cc(O)cc2O[C@H]1c1cc(O)c(O)c(O)c1)c1cc(O)c(O)cc1O` [Compound 42, (2S,3R)-5,7-dihydroxy-2-(3,4,5-trihydroxyphenyl)chroman-3-yl 2,4,5-trihydroxybenzoate], the IC50 was > 100 nM.
With `O=C(O[C@@H]1Cc2c(O)cc(O)cc2O[C@H]1c1cc(O)c(O)c(O)c1)[C@H]1CC[C@@H](O)CC1` [Compound 43, (2S,3R)-5,7-dihydroxy-2-(3,4,5-trihydroxyphenyl)chroman-3-yl (1s,4S)-4-hydroxycyclohexane-1-carboxylate] the IC50 was > 1000 nM.
`O=C(O[C@@H]1Cc2c(O)cc(O)cc2O[C@H]1c1cc(O)c(O)c(O)c1)[C@H]1CC[C@H](O)CC1` [Compound 44, (2S,3R)-5,7-dihydroxy-2-(3,4,5-trihydroxyphenyl)chroman-3-yl (1r,4R)-4-hydroxycyclohexane-1-carboxylate] was tested, and the IC50 was > 1000 nM.
`O=C(O[C@@H]1Cc2c(O)cc(O)cc2O[C@H]1c1cc(O)c(O)cc1F)c1cc(O)c(O)c(O)c1` [Compound 45, (2S,3R)-2-(2-fluoro-4,5-dihydroxyphenyl)-5,7-dihydroxychroman-3-yl 3,4,5-trihydroxybenzoate] was tested, and the IC50 was > 100 nM.
With `O=C(O[C@@H]1Cc2c(O)cc(O)cc2O[C@H]1c1cc(O)c(O)c(O)c1F)c1cc(O)c(O)c(O)c1` [Compound 46, (2S,3R)-2-(2-fluoro-3,4,5-trihydroxyphenyl)-5,7-dihydroxychroman-3-yl 3,4,5-trihydroxybenzoate] the IC50 was < 100 nM.
In the case of `O=C(O[C@@H]1Cc2c(O)cc(O)cc2O[C@H]1c1cc(O)c(O)c(O)c1F)c1cc(O)c(O)c(O)c1F` [Compound 47, (2S,3R)-2-(2-fluoro-3,4,5-trihydroxyphenyl)-5,7-dihydroxychroman-3-yl 2-fluoro-3,4,5-trihydroxybenzoate], the IC50 is reported as < 100 nM.
`O=C(O[C@@H]1Cc2c(O)cc(O)cc2O[C@H]1c1cc(O)c(O)cc1F)c1cc(O)c(O)c(O)c1F` [Compound 48, (2S,3R)-2-(2-fluoro-4,5-dihydroxyphenyl)-5,7-dihydroxychroman-3-yl 2-fluoro-3,4,5-trihydroxybenzoate] was tested, and the IC50 was > 100 nM.
`COc1cc([C@@H]2Oc3cc(O)cc(O)c3C[C@H]2OC(=O)c2cc(O)c(O)c(O)c2F)cc(O)c1O` [Compound 49, (2S,3R)-2-(3,4-dihydroxy-5-methoxyphenyl)-5,7-dihydroxychroman-3-yl 2-fluoro-3,4,5-trihydroxybenzoate] was tested, and the IC50 was > 100 nM.
With `COc1c(O)c(O)cc(C(=O)O[C@@H]2Cc3c(O)cc(O)cc3O[C@H]2c2cc(O)c(O)c(O)c2)c1F` [Compound 50, (2S,3R)-5,7-dihydroxy-2-(3,4,5-trihydroxyphenyl)chroman-3-yl 2-fluoro-4,5-dihydroxy-3-methoxybenzoate] the IC50 was > 100 nM.
With `Cc1cc(O)c(O)cc1[C@@H]1Oc2cc(O)cc(O)c2C[C@H]1OC(=O)c1cc(O)c(O)c(O)c1F` [Compound 52, (2S,3R)-2-(4,5-dihydroxy-2-methylphenyl)-5,7-dihydroxychroman-3-yl 2-fluoro-3,4,5-trihydroxybenzoate] the IC50 was > 100 nM.
In the case of `O=C(O[C@@H]1Cc2ccccc2C[C@H]1c1cc(O)c(O)c(O)c1)c1cc(O)c(O)c(O)c1` [Compound 53, (2R,3S)-3-(3,4,5-trihydroxyphenyl)-1,2,3,4-tetrahydronaphthalen-2-yl 3,4,5-trihydroxybenzoate], the IC50 is reported as > 1000 nM.
In the case of `COc1c(O)c(O)c(F)c(C(=O)O[C@@H]2Cc3c(O)cc(O)cc3O[C@H]2c2cc(O)c(O)c(O)c2)c1F` [Compound 59, (2S,3R)-5,7-dihydroxy-2-(3,4,5-trihydroxyphenyl)chroman-3-yl 2,6-difluoro-3,4-dihydroxy-5-methoxybenzoate], the IC50 is reported as > 100 nM.
With `O=C(O[C@@H]1Cc2c(O)cc(O)cc2O[C@H]1c1cc(O)c(O)c(O)c1)c1cc(O)c(O)c(OC(F)F)c1` [Compound 60, (2S,3R)-5,7-dihydroxy-2-(3,4,5-trihydroxyphenyl)chroman-3-yl 3-(difluoromethoxy)-4,5-dihydroxybenzoate] the IC50 was > 100 nM.
`CC(C)Oc1c(O)c(O)c(F)c(C(=O)O[C@@H]2Cc3c(O)cc(O)cc3O[C@H]2c2cc(O)c(O)c(O)c2)c1F` [Compound 61, (2S,3R)-5,7-dihydroxy-2-(3,4,5-trihydroxyphenyl)chroman-3-yl 2,6-difluoro-3,4-dihydroxy-5-isopropoxybenzoate] was tested, and the IC50 was > 100 nM.
In the case of `O=C(O[C@@H]1Cc2c(O)cc(O)cc2O[C@H]1c1cc(O)c(O)c(O)c1)c1cc(O)c(O)cc1C(F)(F)F` [Compound 62, (2S,3R)-5,7-dihydroxy-2-(3,4,5-trihydroxyphenyl)chroman-3-yl 4,5-dihydroxy-2-(trifluoromethyl)benzoate], the IC50 is reported as > 100 nM.
In the case of `Cc1c(C(=O)O[C@@H]2Cc3c(O)cc(O)cc3O[C@H]2c2cc(O)c(O)c(O)c2)ccc(O)c1O` [Compound 63, (2S,3R)-5,7-dihydroxy-2-(3,4,5-trihydroxyphenyl)chroman-3-yl 3,4-dihydroxy-2-methylbenzoate], the IC50 is reported as > 100 nM.
For `COc1c(O)c(O)c(F)c(C(=O)O[C@@H]2Cc3c(O)cc(O)cc3O[C@H]2c2ccc(O)c(O)c2)c1F` [Compound 64, (2S,3R)-2-(3,4-dihydroxyphenyl)-5,7-dihydroxychroman-3-yl 2,6-difluoro-3,4-dihydroxy-5-methoxybenzoate], the IC50 was > 100 nM.
In the case of `O=C(O[C@@H]1Cc2c(O)cc(O)cc2O[C@H]1c1cc(O)c(O)c(O)c1)c1cc(OC(F)F)c(O)c(O)c1F` [Compound 65, (2S,3R)-5,7-dihydroxy-2-(3,4,5-trihydroxyphenyl)chroman-3-yl 5-(difluoromethoxy)-2-fluoro-3,4-dihydroxybenzoate], the IC50 is reported as > 100 nM.
With `O=C(O[C@@H]1Cc2c(O)cc(O)cc2O[C@H]1c1cc(O)c(O)c(O)c1)c1cc(O)c(O)c(F)c1` [Compound 66, (2S,3R)-5,7-dihydroxy-2-(3,4,5-trihydroxyphenyl)chroman-3-yl 3-fluoro-4,5-dihydroxybenzoate] the IC50 was > 100 nM.
For `CCC(=O)Oc1cc(O)c2c(c1)O[C@H](c1cc(O)c(O)c(O)c1)[C@H](OC(=O)c1cc(O)c(O)c(O)c1)C2` [Compound 69, (2R,3R)-5-hydroxy-7-(propionyloxy)-2-(3,4,5-trihydroxyphenyl)chroman-3-yl 3,4,5-trihydroxybenzoate], the IC50 was > 100 nM.
With `CCNC(=O)Oc1cc(O)c2c(c1)O[C@H](c1cc(O)c(O)c(O)c1)[C@H](OC(=O)c1cc(O)c(O)c(O)c1)C2` [Compound 70, (2R,3R)-7-((ethylcarbamoyl)oxy)-5-hydroxy-2-(3,4,5-trihydroxyphenyl)chroman-3-yl 3,4,5-trihydroxybenzoate] the IC50 was > 100 nM.
In the case of `CCCCCC(=O)Oc1cc(O)c2c(c1)O[C@H](c1cc(O)c(O)c(O)c1)[C@H](OC(=O)c1cc(O)c(O)c(O)c1)C2` [Compound 71, (2R,3R)-7-(hexanoyloxy)-5-hydroxy-2-(3,4,5-trihydroxyphenyl)chroman-3-yl 3,4,5-trihydroxybenzoate], the IC50 is reported as > 100 nM.
With `CCNC(=O)Oc1c(O)cc([C@H]2Oc3cc(O)cc(O)c3C[C@H]2OC(=O)c2cc(O)c(O)c(O)c2)cc1O` [Compound 72, (2R,3R)-2-(4-((ethylcarbamoyl)oxy)-3,5-dihydroxyphenyl)-5,7-dihydroxychroman-3-yl 3,4,5-trihydroxybenzoate] the IC50 was > 100 nM.
